Results from US20260139241A1, “METHOD FOR CONSTRUCTING SENESCENT CELLSAND METHOD FOR EVALUATING ANTI-SENESCENCE EFFICACY” (JAKA BIOTECH Co,.Ltd., priority 2022, published 2026).

Legend:
[1] = system: endogenously senescent human primary fibroblasts (P4, P7, P9, P12 passage cells); assay: Anti-aging efficacy evaluation of VC on endogenously senescent (naturally senescent) cells, proliferation-promoting effect (ATP detection); format: cell-based; conditions: endogenous senescence, 10 ug/mL VC, 48 h
Text: […]

[2] = system: exogenously senescent human primary fibroblasts (UVA-P4, UVA-P7, UVA-P9 passage cells); assay: Anti-aging efficacy evaluation of VC on exogenously senescent (light aging) cells, proliferation-promoting effect (ATP detection); format: cell-based; conditions: exogenous senescence (light aging), 10 ug/mL VC, 48 h
Text: […]

## O=C1O[C@H]([C@@H](O)CO)C(O)=C1O [VC]
[1]; early-stage senescent cells (P7)
  proliferation-promoting effect: relatively poor proliferation-promoting effect
[1]; growth-stage cells (P4)
  proliferation-promoting effect: relatively significant proliferation-promoting effect
[1]; late-stage senescent cells (P12)
  proliferation-promoting effect: basically no proliferation-promoting effect
[1]; middle-stage senescent cells (P9)
  proliferation-promoting effect: basically no proliferation-promoting effect
[2]; early-stage senescent cells (UVA-P4)
  proliferation-promoting effect: relatively significant proliferation-promoting effect
[2]; late-stage senescent cells (UVA-P9)
  proliferation-promoting effect: no proliferation-promoting effect
[2]; middle-stage senescent cells (UVA-P7)
  proliferation-promoting effect: relatively poor proliferation-promoting effect
